Laboratory results taken from patent US20120053122A1, “METHOD FOR THE PROPHYLAXIS OR TREATMENT OF FLUSHING” (priority 2009, published 2012).
Square brackets hold non-standard residues; d marks the D form. Peptide text beside a SMILES is read from it. dPhe(4-Cl) = N[C@H](Cc1ccc(Cl)cc1)C(=O)O; d2Nal = N[C@H](Cc1ccc2ccccc2c1)C(=O)O; dCit = NC(=O)NCCC[C@@H](N)C(=O)O; d3Pal = N[C@H](Cc1cccnc1)C(=O)O

Assays:
Format in all cases: in vivo, women
serum LH and FSH = experiment: Long-term treatment, outpatient setting: serum LH and FSH
Method: LH, FSH and estradiol were measured by electrochemiluminescene immunoassays (Roche Diagnostics, Mannheim, Germany). Normal ranges in PMP women: LH>10 U/L, FSH>30 U/L, estradiol<100 nmol/L. SHBG was measured by chemilumiescent enzyme immunoassay (DPC, Los Angeles, Calif., USA, normal range in PMP women: 18-144 nmol/L)). To evaluate whether responsiveness was maintained in the long run, Cetrorelix treatment was studied for a prolonged period in an outpatient setting. Cetrorelix was started after a baseline observation period of 3-6 days. In the first two patients the starting dose was of 250 μg once a day, injected at about 8.30-9.00 h, just after the morning blood sampling. In the third patient the starting dose was 500 μg once a day. Blood was sampled only in the morning, between 8.00 en 9.00 h, every day during the first 4 days, thereafter every 3 days for a brief period, and later on once a week.

[1] = test system: serum LH, FSH, estradiol, SHBG and albumin; experiment: Short-term in-hospital response: serum LH, FSH, estradiol, SHBG and albumin
From the text: (§1) To avoid intermittent and variable interference of external factors as much as possible, and to guarantee a constant ambient temperature all subjects were hospitalized for further study. They remained ambulatory during that period. They were instructed to record the following flush characteristics in a diary: time of onset, duration in minutes, flush severity on a scale of 0-10, and the degree of associated sweat attacks: 0=no sweating; 1=mild sweating, i.e. only moist skin, no visible sweat drops; 2=moderate sweating, i.e. visible sweat drops; 3=severe sweating, i.e. totally wet, change of clothes necessary. Blood samples for measurement of serum LH, FSH, estradiol, SHBG and albumin were taken each day at 08.00 h and 20.00 h. LH, FSH and estradiol were measured by electrochemiluminescene immunoassays (Roche Diagnostics, Mannheim, Germany). Normal ranges in PMP women: LH>10 U/L, FSH>30 U/L, estradiol<100 nmol/L. SHBG was measured by chemilumiescent enzyme immunoassay (DPC, Los Angeles, Calif., USA, normal range in PMP women: 18-144 nmol/L)).

PMP flushing [2] = experiment: Short-term in-hospital response: flush diary (frequency, duration, severity, sweating)
Method: Three women who were referred for treatment of severe PMP flushing were included in the pilot study, after signing an informed consent. All three had frequent and severe flushing, during daytime as well as during the night. Sleep was often disturbed by flushes and sweat attacks, often forcing a change of clothes and/or bed linen. Physical examination in these patients was unremarkable and other causes of flushing were excluded. Thyroid function was normal, 24 hour urinary hydroxy-indol-acetic acid and catecholamines were within the reference range, serum tryptase was normal, and none used any medication known to induce flushing.
as §1, with “h.” for “h. LH, FSH and estradiol were measured by electrochemiluminescene immunoassays (Roche Diagnostics, Mannheim, Germany). Normal ranges in PMP women: LH>10 U/L, FSH>30 U/L, estradiol<100 nmol/L. SHBG was measured by chemilumiescent enzyme immunoassay (DPC, Los Angeles, Calif., USA, normal range in PMP women: 18-144 nmol/L)).”

PMP flushing [3] = experiment: Long-term treatment, outpatient setting: flush recording
From the text: To avoid intermittent and variable interference of external factors as much as possible, and to guarantee a constant ambient temperature all subjects were hospitalized for further study. They remained ambulatory during that period. They were instructed to record the following flush characteristics in a diary: time of onset, duration in minutes, flush severity on a scale of 0-10, and the degree of associated sweat attacks: 0=no sweating; 1=mild sweating, i.e. only moist skin, no visible sweat drops; 2=moderate sweating, i.e. visible sweat drops; 3=severe sweating, i.e. totally wet, change of clothes necessary. Blood samples for measurement of serum LH, FSH, estradiol, SHBG and albumin were taken each day at 08.00 h and 20.00 h. To evaluate whether responsiveness was maintained in the long run, Cetrorelix treatment was studied for a prolonged period in an outpatient setting. Cetrorelix was started after a baseline observation period of 3-6 days. In the first two patients the starting dose was of 250 μg once a day, injected at about 8.30-9.00 h, just after the morning blood sampling. In the third patient the starting dose was 500 μg once a day. Blood was sampled only in the morning, between 8.00 en 9.00 h, every day during the first 4 days, thereafter every 3 days for a brief period, and later on once a week.

[4] = Patient 1, discontinued after 4 months
[5] = Patient 1, outpatient, 250 μg once a day
[6] = Patient 2, outpatient, 250 μg twice a day after the third month
[7] = Patient 3, outpatient, 500 μg once a day at 20.00 h, first 4 weeks
[8] = Patient 1, 250 μg once a day for five days
[9] = Patient 3, 250 μg once a day at 08.30 h
[10] = Patient 1, 250 μg once a day, within 24 hours
[11] = Patient 2, 250 μg once a day, 4th day of treatment
[12] = Patient 3, 250 μg once a day, after the first 5 days
[13] = Patient 1, outpatient, 250 μg once a day, after two weeks
[14] = Patient 1, outpatient, 250 μg once a day, if flushes occurred
[15] = Patient 2, outpatient, 250 μg once a day, over the following weeks
[16] = Patient 2, outpatient, 250 μg twice a day, eventually

## CC(=O)N[C@H](Cc1ccc2ccccc2c1)C(=O)N[C@H](Cc1ccc(Cl)cc1)C(=O)N[C@H](Cc1cccnc1)C(=O)N[C@@H](CO)C(=O)N[C@@H](Cc1ccc(O)cc1)C(=O)N[C@H](CCCNC(N)=O)C(=O)N[C@@H](CC(C)C)C(=O)N[C@@H](CCCNC(=N)N)C(=O)N1CCC[C@H]1C(=O)N[C@H](C)C(N)=O [Cetrorelix] (Ac-[d2Nal][dPhe(4-Cl)][d3Pal]SY[dCit]LRP[dA]-NH2)
Serum LH and FSH; [4]
  Time for FSH levels to rise to pretreatment levels after discontinuation: ≤ 3 days
  Time for LH levels to rise to pretreatment levels after discontinuation: ≤ 3 days
Serum LH and FSH; [5]
  Serum FSH: decreased to levels similar to those observed during the in-hospital setting
  Serum LH: decreased to levels similar to those observed during the in-hospital setting
Serum LH and FSH; Patient 2, outpatient, 250 μg once a day, stabilized level
  FSH: around 15 U/L
Serum LH and FSH; Patient 2, outpatient, 250 μg once a day, within a week
  Serum LH: decreased to premenopausal levels
Serum LH and FSH; [6]
  Serum FSH level: further decreased
  Serum LH level: further decreased
Serum LH and FSH; [7]
  Serum FSH nadir: 25 U/L
  Serum LH nadir: 8 U/L
[1]; Patient 1, 250 μg once a day
  Time at which FSH reached its nadir: 3 days
[1]; [8]
  Serum SHBG level: did not change
  Serum albumin level: did not change
  Serum estradiol level: did not change
[1]; Patient 1, 250 μg once a day, in 3 days, from about 90
  Serum FSH: ~60 U/L
[1]; Patient 1, 250 μg once a day, within 12 hours, from about 22
  Serum LH level: ~10 U/L
[1]; Patient 1, short-term
  Time for serum FSH to rise again to pre-treatment levels after discontinuation: ≤ 48 h
  Time for serum LH to rise again to pre-treatment levels after discontinuation: ≤ 48 h
[1]; Patient 2, 250 μg once a day
  Serum FSH level change: gradual decrease
  Time at which FSH reached its nadir: 5 days
[1]; Patient 2, 250 μg once a day, within 12 hours
  Serum LH change: abrupt decrease
[1]; Patient 2, short-term
  Time for LH to return to pre-treatment levels after discontinuation: ≤ 48 h
[1]; Patient 2, short-term, compared with LH
  FSH after discontinuation: rose somewhat more slowly
[1]; [9]
  FSH change: more gradually
  LH change: decreased abruptly
[1]; Patient 3, short-term
  FSH after discontinuation of treatment: rose rapidly
  LH after discontinuation of treatment: rose rapidly
PMP flushing [2]; [8]
  Daytime flush duration: did not change appreciably
  Nighttime flush duration: tended to decrease
PMP flushing [2]; Patient 1, 250 μg once a day for five days, in particular during daytime
  Flush severity: weak trend to decrease
PMP flushing [2]; [10]
  Decrease in daytime flush frequency: 60-70%
  Decrease in nighttime flushing: 60-70%
  Decrease in total flush frequency: 60-70%
PMP flushing [2]; Patient 1, short-term
  Time for flush frequency to rise again to pre-treatment levels after discontinuation: ≤ 48 h
PMP flushing [2]; Patient 2, 250 μg once a day
  Daytime flush duration: tended to decrease slightly
  Daytime flush severity: did not change significantly
  Flush sweating: did not change significantly
PMP flushing [2]; [11]
  Change in daytime flush frequency: −80%
  Daytime flush frequency: 4 flushes per day
PMP flushing [2]; Patient 2, 250 μg once a day, after the first night
  Nighttime flushing: completely disappeared
PMP flushing [2]; Patient 2, 250 μg once a day, first night of treatment
  Change in nighttime flushing: −80%
PMP flushing [2]; Patient 2, 250 μg once a day, first night of treatment, from 5
  Nighttime flushing: 1
PMP flushing [2]; Patient 2, 250 μg once a day, within one day
  Change in daytime flush frequency: −60%
PMP flushing [2]; Patient 2, 250 μg once a day, within one day, from 20
  Daytime flush frequency: 8
PMP flushing [2]; Patient 2, within the two days after discontinuation
  Flush frequency after discontinuation: did not reach pre-treatment levels
PMP flushing [2]; [12]
  Change in daytime flushes: −25%
  Change in total flushes: −25%
  Nighttime flushing: did not change significantly
PMP flushing [2]; Patient 3, 250 μg twice a day
  Nighttime flushing: started to decrease
PMP flushing [2]; Patient 3, after 250 μg once then twice a day, one day after discontinuation
  Decrease in total daily flush frequency: 80%
PMP flushing [2]; Patient 3, six days after discontinuation
  Flush frequency after discontinuation: still markedly lower than before treatment
PMP flushing [3]; [4]
  Time after discontinuation at which flush frequency started to rise: 6 weeks
PMP flushing [3]; [13]
  Daytime flush frequency: close to zero
  Nighttime flush frequency: close to zero
PMP flushing [3]; Patient 1, outpatient, 250 μg once a day, from about 8, day as well as night
  Flush severity (scale of 0-10): ~4
PMP flushing [3]; [14]
  Degree of perspiration: unchanged
  Flush duration: unchanged
PMP flushing [3]; [15]
  Daytime flush duration: gradually decreased
  Daytime flush perspiration: gradually decreased
  Daytime flush severity: gradually decreased
PMP flushing [3]; Patient 2, outpatient, 250 μg once a day, up to third month
  Daytime flushing, level at which it levelled off: 10 flushes/day
PMP flushing [3]; Patient 2, outpatient, 250 μg once a day, within the first week, from about 18
  Daytime flush frequency: ~8 flushes/day
PMP flushing [3]; Patient 2, outpatient, 250 μg once a day, within two days
  Nighttime flushing: disappeared completely
PMP flushing [3]; [6]
  Flushing: further decreased
PMP flushing [3]; [16]
  Total daily flushing: 6 flushes/day
  Total decrease in total daily flushing: about 75%
PMP flushing [3]; Patient 3, outpatient, 500 μg once a day, P<0.007
  Decline of flush frequency: 79.3%
PMP flushing [3]; Patient 3, outpatient, 500 μg once a day, from 9.67±1.12, P<0.007
  Flush frequency (mean±standard error of the mean): 2.00±0.44
